Assay results taken from patent publication US20060280820A1, “Use of an extract of Aloysia/Verbena/Lippia triphylla/citriodora for the treatment of chronic and/or inflammatory diseases” (priority 2003, published 2006).

Experiment: Degradation of glycosaminoglycanes by reactive oxygen species (FIG. 2)
Assay type: biochemical
Details: free ferrous ions and hydrogen peroxide; pH value 7.2, 37 degrees Celsius

Question: Which “degradation of glycosaminoglycanes by reactive oxygen species” value does the source give for `O=C1O[C@H]([C@@H](O)CO)C(O)=C1O` [vitamin C] here?
Answer: enhances the degradation of glycosaminoglycanes
